Data reported in PMC3388044, “Probing of Exosites Leads to Novel Inhibitor Scaffolds of HCV NS3/4A Proteinase” (PLoS ONE, 2012).

How the values were obtained:
WNV NS2B-NS3 proteinase = WNV NS2B-NS3 proteinase activity assay (cross-reactivity); assay type: biochemical, West Nile virus (strain NY99); conditions: pyroglutamic acid-Arg-Thr-Lys-Arg-7-amino-4-methylcoumarin substrate
Source text: (§1) Reagents were purchased from Sigma unless indicated otherwise. The FRET substrate Ac-DE-D(Edans)-EE-Abu-ψ-[COO]-AS-K(Dabsyl)-NH2, purified recombinant wild-type NS3/4A from HCV genotype 1b, strain HC-J4, and the mutants with the V36M, R155K, A156T, D168A and V170A resistance mutations were from AnaSpec (Fremont, CA). The NS3/4A construct represented the individual NS3 proteinase domain N-terminally fused with an NS4A co-factor and tagged with a 6xHis tag. NS3/4A was in active form and the pre-activation by pep-4A or pep4AK was not necessary. Pyroglutamic acid-Arg-Thr-Lys-Arg-7-amino-4-methylcoumarin was from Peptides International (Louisville, KY). West Nile virus NS2B-NS3 proteinase (strain NY99) was expressed, purified and refolded to restore its functional activity as described earlier. The pET15b-Den2-CF40-Gly-NS3pro 185 plasmid encoding the Dengue virus type 2 NS2B-NS3 protease was a kind gift of Dr. Subhash Vasudevan (Program in Emerging Infectious Diseases, DUKE-NUS Graduate Medical School, Singapore). DV NS2B-NS3 proteinase was expressed purified and refolded to restore its functional activity as described previously, [70]. The expression of the soluble C-terminally truncated human furin construct in Sf9 insect cells (an ovarian cell line from fall armyworm Spodoptera frugiperda; Invitrogen, Carlsbad, CA) infected with the recombinant baculovirus and purification of soluble furin from the medium were described earlier. Original human hepatocarcinoma Huh7 cells were obtained from ATCC (Manassas, VA).
(§2) The activity of furin and both WNV and DV2 NS2B-NS3 proteinases (10 nM each) was measured in triplicate in 0.2 ml 20 mM Tris-HCl buffer, pH 8.0, containing 20% glycerol and 0.005% Brij 35 (for furin – 100 mM HEPES, pH 7.5, containing 1 mM CaCl2, 1 mM β-mercaptoethanol and 0.005% Brij 35) and pyroglutamic acid-Arg-Thr-Lys-Arg-7-amino-4-methylcoumarin (10 µM) as a substrate (λex = 360 nm; λem = 465 nm) as described earlier.
(§3) To measure the inhibitory potency of the compounds, their increasing concentrations were pre-incubated with the individual proteinases in the corresponding buffer for 30 min at ambient temperature. At least, 7–9 different concentrations were used for each inhibitor. The residual activity of the enzymes was then measured as above. The IC50 values of the inhibitory compounds were calculated by determining the concentrations of the compounds needed to inhibit 50% of the enzyme activity against the peptide substrate. GraphPad Prism was used as fitting software.

DV2 NS2B-NS3 proteinase = biological target: T1, DV2 NS2B-NS3 proteinase (Dengue virus type 2, UniProt P29990); test: DV2 NS2B-NS3 proteinase activity assay (cross-reactivity); assay type: biochemical; conditions: pyroglutamic acid-Arg-Thr-Lys-Arg-7-amino-4-methylcoumarin substrate
T1 construct: The pET15b-Den2-CF40-Gly-NS3pro 185 plasmid encoding the Dengue virus type 2 NS2B-NS3 protease; made in house
Source text: as §1, §2, §3

Huh7 ET cells = conditions: for CC50: read-out: HCV replicon CC50, concentration reducing cell viability by 50%, 72 h; for CC90: read-out: HCV replicon CC90, concentration reducing cell viability by 90%, 72 h
Protocol: Both cell toxicity and HCV replicon inhibition assays were performed in triplicate in wells of a 96-well flat-bottom, white-wall plates (E&K Scientific, Santa Clara, CA) by the Drug Development Division, Southern Research Institute (SRI; Birmingham, AL). […] Prior to the assays, sub-confluent Huh7 ET cultures were seeded in wells of a 96-well plate. Following a 24 h incubation at 37°C in a 5% CO2 incubator, increasing concentrations of the compounds were added to the wells and incubation was continued for an additional 72 h. […] Human interferon α2b was used as a control. The cellular replicon-derived luciferase activity was measured using the Steady-Glo Luciferase Assay System (Promega, Fitchburg, WI) and a fluorescence spectrophotometer. Cytotoxicity of compounds was measured using the CytoTox-ONE Homogeneous Membrane Integrity Assay (Promega). The IC50 and IC90 values of the compounds (compound concentrations inhibiting the replicon by 50% and 90%, respectively) as well as CC50 and CC90 (compound concentration decreasing cell viability by 50% and 90%, respectively) were calculated using GraphPad Prism.

NS3/4A V170A = test: NS3/4A activity assay, V170A mutant; assay type: biochemical, HCV genotype 1b, strain HC-J4; conditions: for NS3/4A V170A FC: fold change in IC50 for the mutant compared to WT; for IC50: recombinant V170A mutant, FRET peptide substrate
Source text: as §1, with “NS3/4A was in active form and the pre-activation by pep-4A or pep4AK was not necessary.” left out
The NS3/4A activity assay was performed at 37°C in triplicate in wells of a 96-well plate in 0.2 ml 50 mM HEPES, pH 7.5, containing 100 mM NaCl, 10 mM DTT, 20% glycerol, the Ac-DE-D(Edans)-EE-Abu-ψ-[COO]-AS-K(Dabsyl)-NH2 substrate (10 µM) and the NS3/4A enzyme (10 nM). Reaction velocity was monitored continuously at λex = 355 nm and λem = 500 nm for 10 min using a Spectramax Gemini EM fluorescence spectrophotometer (Molecular Devices, Sunnyvale, CA) and the initial rate of reaction v was recorded for each reaction. […] Compound stock solutions (10 mM) were made in 100% DMSO. Stocks were then diluted using the assay buffer. As a result, the final DMSO concentration was always below 1% in the assay reactions.
as §3

T1 sequence (P29990 1476-1653): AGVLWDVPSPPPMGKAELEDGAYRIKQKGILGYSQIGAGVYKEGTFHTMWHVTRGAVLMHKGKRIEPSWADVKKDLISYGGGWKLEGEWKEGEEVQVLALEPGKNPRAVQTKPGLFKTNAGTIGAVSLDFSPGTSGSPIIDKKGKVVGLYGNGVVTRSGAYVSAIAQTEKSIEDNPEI

Compound	IC50 (WNV NS2B-NS3 proteinase)	IC50 (DV2 NS2B-NS3 proteinase)	CC50 (Huh7 ET cells)	CC90 (Huh7 ET cells)	NS3/4A V170A FC (NS3/4A V170A)	IC50 (NS3/4A V170A)
Clc1ccc(Nc2nc(SCc3ccccc3)nc3n[nH]c(Cc4nc5ccccc5s4)c23)cc1 [Compound 5]	23.7 µM	49.4 µM	> 100 µM	> 100 µM	16.6	6.29 µM
COc1cc(C2C(C(=O)Nc3ccc(Cl)c(Cl)c3)=C(C)NC(C)=C2C(=O)Nc2ccc(Cl)c(Cl)c2)ccc1O [Compound 8]	21.8 µM	38.8 µM	14.2 µM	26.6 µM	1.5	2.92 µM
Clc1ccc(OCc2nn3c(CCc4nnc5sc(COc6ccc(Cl)cc6)nn45)nnc3s2)cc1 [Compound 2]	> 100 µM	> 100 µM	9.99 µM	22.1 µM	6	1.8 µM
Oc1ccccc1-c1nnc2sc3c(Cl)c4nn5c(-c6ccccc6O)nnc5sc4c(Cl)c3nn12 [Compound 4]	3.7 µM	14.3 µM	> 100 µM	> 100 µM	2.2	0.8 µM
S=c1[nH]nc(Nc2nc(SCc3ccccc3)nc3n[nH]c(Cc4nn[nH]n4)c23)s1 [Compound 6]	12.7 µM	20.6 µM	> 100 µM	> 100 µM	0.98	0.93 µM
O=C(Nc1ccccc1)c1cc(S(=O)(=O)Nc2nc3ncccc3[nH]2)c(SSc2cc(Cl)c(C(=O)Nc3ccccc3)cc2S(=O)(=O)Nc2nc3ncccc3[nH]2)cc1Cl [Compound 1]	21.9 µM	19.7 µM	> 100 µM	> 100 µM	2.2	0.4 µM
Cc1n[nH]c(=S)n1Nc1nc(SCc2ccccc2)nc2n[nH]c(Cc3nn[nH]n3)c12 [Compound 3]	18.2 µM	34.5 µM	> 100 µM	> 100 µM	5.5	1.97 µM
S=c1[nH]n2c(COc3cc(Cl)c(OCc4nnc5sc(=S)[nH]n45)cc3Cl)nnc2s1 [Compound 7]	39.1 µM	> 100 µM	86.8 µM	96.3 µM	1.2	1.52 µM
